Tests used:
UGT1A10 = target: T1, UGT1A10 (Homo sapiens, UniProt Q9HAW8); experiment: Inhibition of recombinant UGT1A10 activity (4-MU glucuronidation)
T1 sequence (Q9HAW8 26-530): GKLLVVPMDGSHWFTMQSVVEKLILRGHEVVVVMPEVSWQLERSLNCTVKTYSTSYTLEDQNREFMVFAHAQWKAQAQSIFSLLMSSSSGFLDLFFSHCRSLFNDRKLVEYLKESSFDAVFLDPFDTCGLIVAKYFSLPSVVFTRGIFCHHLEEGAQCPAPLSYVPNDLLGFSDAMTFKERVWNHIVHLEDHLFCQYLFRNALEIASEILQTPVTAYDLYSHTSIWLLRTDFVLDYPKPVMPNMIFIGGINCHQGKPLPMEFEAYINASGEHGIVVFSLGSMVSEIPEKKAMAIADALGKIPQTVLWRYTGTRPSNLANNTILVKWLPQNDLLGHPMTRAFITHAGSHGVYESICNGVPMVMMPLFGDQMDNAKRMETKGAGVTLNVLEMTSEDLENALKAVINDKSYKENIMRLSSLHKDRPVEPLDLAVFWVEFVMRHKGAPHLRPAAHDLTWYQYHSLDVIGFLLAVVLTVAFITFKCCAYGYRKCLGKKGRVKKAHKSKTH
Procedure: (§1) A panel of recombinant human UGT supersomes (UGT1A1, UGT1A3, UGT1A4, UGT1A6, UGT1A7, UGT1A8, UGT1A9, UGT1A10, UGT2B4, UGT2B7, UGT2B15, and UGT2B17) expressed in baculovirus-infected insect cells were purchased from BD Gentest Corp. (Woburn, MA, USA).
(§2) 4-MU, a nonselective substrate of UGTs, was used as probe substrate for all UGTs except UGT1A4. Incubations with each individual enzyme were conducted using conditions previously described. There was a 5 min preincubation step at 37°C before the reaction was started by addition of UDPGA. The incubation mixtures were then centrifuged at 20,500 ×g for 15 min to obtain the supernatant. Aliquots (20 μL) were then analyzed by HPLC. The HPLC system (SHIMADZU, Kyoto, Japan) consisted of an SCL-10A system controller, two LC-10AT pumps, a SIL-10A auto injector, and a SPD-10AVP UV detector. Chromatographic separation was achieved using a Kromasil ODS column (4.6 × 150 mm I.D., 5 μm particle size) at a flow rate of 1 mL/min and UV detection at 316 nm. The mobile phase consisted of 10 mM KH2PO4, pH 2.7 (A) and acetonitrile (B). The following gradient was applied at a flow rate of 1 mL/min: 0–4 min 80% A and 20% B, 4.1–8 min 50% A and 50% B, 8.1–12 min, 30% A and 70% B. All experiments were performed in two independent experiments in duplicate.
(§3) A typical incubation mixture contained recombinant human UGTs, 5 mM MgCl2, 5 mM UDPGA, 50 μg/mg protein alamethicin, 50 mM Tris-HCl buffer (pH 7.4), and various probe substrates of UGTs in the absence or presence of different concentrations of inhibitors. […] The final concentration of DMSO in the incubation system was 1% (v/v). […]
(§4) Inhibition data from experiments were graphically represented by Dixon plots. K i values were calculated by nonlinear regression using the equations for competitive inhibition (1), noncompetitive inhibition (2), or mixed inhibition (3), [22] […] The type of inhibition was determined from the enzyme inhibition models. Goodness of fit to kinetic and inhibition models was assessed from the F statistic, r ^2 values, parameter standard error estimates, and 95% confidence intervals. […]

[1] = Calculation of possible maximum concentrations in gut lumen; set-up: species or system human; conditions: calculated, after a single oral administration of Epimedium pubescens decoction
Excerpt: The reported V L was 1.65 L/70 kg. […] Here we arbitrarily assumed the ratio in rat equaled to that in human blood, and the values of their oral bioavailability were consistent.

UGT2B15 = target: T2, UGT2B15 (Homo sapiens, UniProt P54855); experiment: Inhibition of recombinant UGT2B15 activity (4-MU glucuronidation)
T2 sequence (P54855 24-530): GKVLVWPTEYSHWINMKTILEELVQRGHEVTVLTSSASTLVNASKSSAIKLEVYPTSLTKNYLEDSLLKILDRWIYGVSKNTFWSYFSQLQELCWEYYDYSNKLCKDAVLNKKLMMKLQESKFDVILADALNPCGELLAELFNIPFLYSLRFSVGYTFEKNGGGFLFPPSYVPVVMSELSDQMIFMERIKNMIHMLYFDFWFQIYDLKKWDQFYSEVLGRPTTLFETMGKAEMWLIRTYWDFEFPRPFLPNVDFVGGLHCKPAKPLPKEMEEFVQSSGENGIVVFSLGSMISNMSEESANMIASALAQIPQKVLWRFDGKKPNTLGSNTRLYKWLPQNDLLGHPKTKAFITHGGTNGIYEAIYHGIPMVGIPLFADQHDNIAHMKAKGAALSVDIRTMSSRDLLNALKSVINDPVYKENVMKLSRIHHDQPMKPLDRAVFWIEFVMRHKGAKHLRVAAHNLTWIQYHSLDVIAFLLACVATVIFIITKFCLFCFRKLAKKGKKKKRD
Procedure: as §1, §2, §3, §4

[2] = reported value, as fraction; cited from earlier work
CYPs = tested on: CYPs; set-up: method as in PMID 16476124; conditions: previous studies; cited from earlier work
[3] = cited from earlier work

What does the source list for `COc1ccc(-c2oc3c(CC=C(C)C)c(O)cc(O)c3c(=O)c2O)cc1` [Icaritin]?
IC50 (UGT1A10): > 100 µM; Possible maximum concentration in human gut lumen [1]: ~3.8 µM; IC50 (UGT2B15): > 100 µM

For `COc1ccc(-c2oc3c(CC=C(C)C)c(O[C@@H]4O[C@H](CO)[C@@H](O)[C@H](O)[C@H]4O)cc(O)c3c(=O)c2O)cc1` [Icariside I], which IC50 (UGT1A10) is on record?
Its IC50 is greater than 100 µM.

And the “Possible maximum concentration in human gut lumen” value [1]?
Its value is roughly 0.2 µM.

And the IC50 (UGT2B15)?
Its IC50 is greater than 100 µM.

With `COc1ccc(-c2oc3c(CC=C(C)C)c(O[C@@H]4O[C@H](CO)[C@@H](O)[C@H](O)[C@H]4O)cc(O)c3c(=O)c2O[C@@H]2O[C@@H](C)[C@H](O)[C@@H](O)[C@H]2O)cc1` [Icariin] as the compound, how does the IC50 (UGT1A10) read?
Its IC50 is greater than 100 µM.

And the Oral bioavailability [2]?
The Oral bioavailability was 0.12.

What about the “Inhibitory effect on CYPs activities” value (CYPs) of the same compound?
Its value is “no inhibitory effects”.

And the “Possible maximum concentration in human gut lumen” value [1]?
The value was “about 9.9 μM”.

And the IC50 (UGT2B15)?
The IC50 was greater than 100 µM.

And the “Fraction of icariin transformed into its intestinal metabolites in the intestinal lumen” value [3]?
The value was “about 70%”.

Reference: article PMC3479967 (Evidence-based Complementary and Alternative Medicine : eCAM, 2012)
